Laboratory results from DBAASP.
Converted amounts (≈) assume the structure as drawn. Values belong to the molecule of their own block, whether it stands above or below them.

Columns and labels:
Assay in all cases: ≥ marks a high value that may be exact or a test limit, other limits are often not marked, values filed in µg/mL are converted to µM
Escherichia coli C600 = tested on: Escherichia coli C600
[1] = tested on: Pseudomonas aeruginosa PAO1
[2] = tested on: Staphylococcus aureus 209P
[3] = tested on: Candida albicans ATCC 10231
Escherichia coli D31 = tested on: Escherichia coli D31
[4] = tested on: Pseudomonas aeruginosa ATCC 15442
[5] = tested on: Staphylococcus aureus ATCC 25923
[6] = tested on: Streptococcus mutans ATCC 25175
[7] = tested on: Escherichia coli DH5alpha
Staphylococcus xylosus = tested on: Staphylococcus xylosus
[8] = tested on: Candida albicans ATCC 64550
[9] = tested on: Cryptococcus neoformans ATCC 32045
[10] = tested on: Escherichia coli ATCC 2592
[11] = tested on: Pseudomonas aeruginosa ATCC 10145
[12] = tested on: Staphylococcus aureus ATCC 33591
[13] = tested on: Escherichia coli ATCC 25922
[14] = tested on: Staphylococcus aureus ATCC 29213
[15] = tested on: Staphylococcus epidermidis ATCC 12228
[16] = tested on: Candida albicans CGMCC 2.2086
Candida albicans = tested on: Candida albicans
[17] = tested on: Candida parapsilosis CGMCC 2.3989
[18] = tested on: Candida tropicalis CGMCC 2.1975
[19] = tested on: Enterococcus faecalis ATCC 29212
Escherichia coli UB1005 = tested on: Escherichia coli UB1005
[20] = tested on: Pseudomonas aeruginosa ATCC 27853
[21] = tested on: Salmonella enterica subsp. enterica serovar Choleraesuis CVCC 503
[22] = tested on: Salmonella enterica subsp. enterica serovar Typhimurium ATCC 14028
[23] = tested on: Salmonella enterica subsp. enterica serovar Typhimurium C77-31
[24] = tested on: Staphylococcus aureus ATCC 43300

MIC (Escherichia coli C600): 3.13 µM (≈ 7.05 µg/mL) | MIC [1]: 6.25 µM (≈ 14.1 µg/mL) | MIC [2]: 3.13 µM (≈ 7.05 µg/mL)
SMILES: CC(C)[C@@H]1NC(=O)CNC(=O)[C@H](CCCN=C(N)N)NC(=O)[C@H](C(C)C)NC(=O)[C@H](CCCN=C(N)N)NC(=O)[C@H](C)NC(=O)[C@H](Cc2ccc(O)cc2)NC(=O)[C@H](C(C)C)NC(=O)[C@@H](NC(=O)[C@H](Cc2c[nH]c3ccccc23)NC(=O)[C@@H](N)CCCN=C(N)N)CSSC[C@@H](C(=O)N[C@@H](CCCN=C(N)N)C(=O)O)NC(=O)[C@H](CCCN=C(N)N)NC(=O)[C@H](CCCN=C(N)N)NC(=O)[C@H](Cc2ccc(O)cc2)NC(=O)[C@H](CCCN=C(N)N)NC1=O [RWCVYARVRGVRYRRCR]

MIC [3]: > 100 µM | MIC (Escherichia coli D31): ≥ 64 µM | MIC [4]: ≥ 100 µM | MIC [5]: 16 µM (≈ 37.7 µg/mL) | MIC [6]: ≥ 100 µM
SMILES: CC(C)C[C@H](NC(=O)[C@H](C)NC(=O)[C@H](CC(N)=O)NC(=O)[C@H](Cc1ccccc1)NC(=O)[C@@H](NC(=O)[C@@H](NC(=O)CN)C(C)C)[C@@H](C)O)C(=O)N[C@@H](CCCCN)C(=O)NCC(=O)N[C@H](C(=O)N[C@@H](C)C(=O)N[C@@H](CCCCN)C(=O)N[C@H](C(=O)N[C@H](C(=O)N[C@@H](C)C(=O)N[C@@H](C)C(=O)N[C@@H](CCC(N)=O)C(=O)N[C@@H](CC(C)C)C(=O)N[C@@H](CC(C)C)C(=O)N[C@@H](CCCCN)C(=O)N[C@H](C(=O)N[C@@H](C)C(=O)N[C@@H](CCCN=C(N)N)C(N)=O)[C@@H](C)O)C(C)C)[C@@H](C)O)C(C)C [GVTFNALKGVAKTVAAQLLKTAR]

MIC [7]: ≥ 64 µM | MIC (Staphylococcus xylosus): ≥ 64 µM
SMILES: CC[C@H](C)[C@H](NC(=O)[C@H](CC(C)C)NC(=O)[C@@H](NC(=O)[C@H](CC(C)C)NC(=O)[C@@H](NC(=O)[C@H](CC(C)C)NC(=O)[C@@H](NC(=O)[C@H](CCCCN)NC(=O)[C@H](CCCN=C(N)N)NC(=O)[C@@H](N)CCCCN)[C@@H](C)CC)[C@@H](C)CC)[C@@H](C)CC)C(=O)N[C@@H](CC(C)C)C(=O)O [KRKILILILIL]

MIC [8]: ≥ 100 µM
SMILES: NCCCC[C@H](NC(=O)[C@H](CCCCN)NC(=O)[C@H](CCCN=C(N)N)NC(=O)[C@H](CCCN=C(N)N)NC(=O)[C@H](Cc1ccc(O)cc1)NC(=O)[C@H](Cc1ccc(O)cc1)NC(=O)[C@H](CCCCN)NC(=O)[C@H](CCCN=C(N)N)NC(=O)CNC(=O)[C@@H](N)CCCN=C(N)N)C(=O)O [RGRKYYRRKK]

MIC [3]: 113 µM (≈ 354 µg/mL) | MIC [9]: 28.1 µM (≈ 88 µg/mL) | MIC [10]: 14 µM (≈ 43.8 µg/mL) | MIC [11]: 6.38 µM (≈ 20 µg/mL) | MIC [12]: 14 µM (≈ 43.8 µg/mL)
SMILES: C[C@H](NC(=O)[C@H](CCCCN)NC(=O)[C@H](Cc1ccccc1)NC(=O)[C@H](C)NC(=O)[C@H](CCCCN)NC(=O)[C@H](Cc1ccccc1)NC(=O)[C@H](C)NC(=O)[C@H](CCCCN)NC(=O)[C@H](Cc1ccccc1)NC(=O)[C@H](C)NC(=O)[C@H](CCCCN)NC(=O)[C@H](Cc1ccccc1)NC(=O)[C@H](C)NC(=O)[C@H](CCCCN)NC(=O)[C@H](Cc1ccccc1)NC(=O)[C@H](C)NC(=O)[C@H](CCCCN)NC(=O)[C@H](Cc1ccccc1)NC(=O)[C@H](C)NC(=O)[C@H](CCCCN)NC(=O)[C@H](Cc1ccccc1)NC(=O)[C@H](C)NC(=O)[C@H](CCCCN)NC(=O)[C@H](Cc1ccccc1)NC(=O)[C@H](C)NC(=O)[C@H](CCCCN)NC(=O)[C@@H](N)Cc1ccccc1)C(=O)O [FKAFKAFKAFKAFKAFKAFKAFKAFKA]

MIC [8]: ≥ 100 µM | MIC [13]: 90.1 µM (≈ 125 µg/mL) | MIC [14]: 11.5 µM (≈ 16 µg/mL) | MIC [15]: 5.77 µM (≈ 7.99 µg/mL)
SMILES: CC(C)[C@H](NC(=O)[C@H](Cc1c[nH]c2ccccc12)NC(=O)[C@H](CCCCN)NC(=O)[C@@H](N)CCCN=C(N)N)C(=O)N[C@@H](Cc1c[nH]c2ccccc12)C(=O)N[C@@H](Cc1c[nH]c2ccccc12)C(=O)N[C@@H](CCCN=C(N)N)C(=O)N[C@@H](CC(N)=O)C(=O)N[C@@H](CCCN=C(N)N)C(N)=O [RKWVWWRNR]

MIC [16]: ≥ 64 µM | MIC (Candida albicans): 45.3 µM (≈ 74.4 µg/mL) | MIC [17]: ≥ 64 µM | MIC [18]: 8 µM (≈ 13.1 µg/mL) | MIC [19]: > 64 µM | MIC (Escherichia coli UB1005): ≥ 32 µM | MIC [20]: 32 µM (≈ 52.6 µg/mL) | MIC [1]: 16 µM (≈ 26.3 µg/mL) | MIC [22]: 64 µM (≈ 105 µg/mL) | MIC [23]: ≥ 32 µM | MIC [5]: > 64 µM | MIC [14]: 64 µM (≈ 105 µg/mL) | MIC [24]: 64 µM (≈ 105 µg/mL) | MIC [15]: > 64 µM
SMILES: CC(C)C[C@H](NC(=O)[C@H](CCCCN)NC(=O)[C@H](CCCCN)NC(=O)[C@H](CC(C)C)NC(=O)[C@H](CCCN=C(N)N)NC(=O)[C@H](CS)NC(=O)[C@H](C)NC(=O)[C@H](CC(C)C)NC(=O)[C@H](CCCCN)NC(=O)[C@H](CCCCN)NC(=O)[C@@H](N)CC(C)C)C(=O)N[C@@H](C)C(=O)N[C@@H](CS)C(=O)N[C@@H](CCCN=C(N)N)C(N)=O [LKKLACRLKKLACR]
MIC [21]: ≥ 32 µM

MIC [3]: 169 µM (≈ 354 µg/mL) | MIC [9]: 2.7 µM (≈ 5.66 µg/mL) | MIC [10]: 21.2 µM (≈ 44.5 µg/mL) | MIC [11]: ≥ 47.7 µM | MIC [12]: ≥ 238 µM
SMILES: C[C@H](NC(=O)[C@H](CCCCN)NC(=O)[C@H](Cc1ccccc1)NC(=O)[C@H](C)NC(=O)[C@H](CCCCN)NC(=O)[C@H](Cc1ccccc1)NC(=O)[C@H](C)NC(=O)[C@H](CCCCN)NC(=O)[C@H](Cc1ccccc1)NC(=O)[C@H](C)NC(=O)[C@H](CCCCN)NC(=O)[C@H](Cc1ccccc1)NC(=O)[C@H](C)NC(=O)[C@H](CCCCN)NC(=O)[C@H](Cc1ccccc1)NC(=O)[C@H](C)NC(=O)[C@H](CCCCN)NC(=O)[C@@H](N)Cc1ccccc1)C(=O)O [FKAFKAFKAFKAFKAFKA]

MIC [7]: ≥ 64 µM | MIC [20]: 128 µM (≈ 235 µg/mL) | MIC (Staphylococcus xylosus): ≥ 64 µM
SMILES: CC[C@H](C)[C@H](NC(=O)[C@H](CC(C)C)NC(=O)[C@@H](NC(=O)[C@H](CCCN=C(N)N)NC(=O)[C@H](CCCCN)NC(=O)[C@H](CCCN=C(N)N)NC(=O)[C@H](CCCCN)NC(=O)[C@H](CCCN=C(N)N)NC(=O)[C@H](CCCCN)NC(=O)[C@H](CCCN=C(N)N)NC(=O)[C@H](CCCCN)NC(=O)[C@H](CC(C)C)NC(=O)[C@@H](NC(=O)[C@@H](N)CC(C)C)[C@@H](C)CC)[C@@H](C)CC)C(=O)O [LILKRKRKRKRILI]

MIC [3]: 94.7 µM (≈ 354 µg/mL) | MIC [9]: 23.6 µM (≈ 88 µg/mL) | MIC [10]: 11.9 µM (≈ 44.5 µg/mL) | MIC [11]: 16.6 µM (≈ 62 µg/mL) | MIC [12]: ≥ 47.4 µM
SMILES: C[C@H](NC(=O)[C@H](Cc1ccccc1)NC(=O)[C@H](CCCN=C(N)N)NC(=O)[C@H](CCCN=C(N)N)NC(=O)[C@H](C)NC(=O)[C@H](Cc1ccccc1)NC(=O)[C@H](CCCN=C(N)N)NC(=O)[C@H](CCCN=C(N)N)NC(=O)[C@H](C)NC(=O)[C@H](Cc1ccccc1)NC(=O)[C@H](CCCN=C(N)N)NC(=O)[C@H](CCCN=C(N)N)NC(=O)[C@H](C)NC(=O)[C@H](Cc1ccccc1)NC(=O)[C@H](CCCN=C(N)N)NC(=O)[C@H](CCCN=C(N)N)NC(=O)[C@H](C)NC(=O)[C@H](Cc1ccccc1)NC(=O)[C@H](CCCN=C(N)N)NC(=O)[C@H](CCCN=C(N)N)NC(=O)[C@H](C)NC(=O)[C@H](Cc1ccccc1)NC(=O)[C@H](CCCN=C(N)N)NC(=O)[C@H](CCCN=C(N)N)NC(=O)[C@H](C)NC(=O)[C@H](Cc1ccccc1)NC(=O)[C@@H](N)CCCN=C(N)N)C(=O)N[C@@H](CCCN=C(N)N)C(=O)O [RFARRFARRFARRFARRFARRFARRFAR]

MIC [7]: ≥ 64 µM | MIC (Staphylococcus xylosus): ≥ 64 µM
SMILES: NCCCC[C@H](NC(=O)[C@H](CCCN=C(N)N)NC(=O)[C@H](CCCCN)NC(=O)CNC(=O)[C@H](CCCCN)NC(=O)[C@H](CCCN=C(N)N)NC(=O)[C@@H](N)CCCCN)C(=O)O [KRKGKRK]
